From the CheMixHub ionic liquid set

Experiment: xn = mol fraction of the nth substance listed

CCCC[n+]1ccn(C)c1.F[B-](F)(F)F + CNC(C)=O
Conditions	viscosity [mPa·s]
293.15 K, 101 kPa, x1 = 1	127.6

C[C@H](N)C(=O)O + CCCCCCCCCCCC[N+](C)(C)Cc1ccccc1.[Cl-] + O
electrical conductivity [S/m], 101 kPa
Conditions	293.15 K	298.15 K	303.15 K	308.15 K	313.15 K
x1 = 0.000902, x2 = 0	0.0002	0.000236	0.000271	0.00031	0.000356
x1 = 0.001774, x2 = 0	0.000272	0.000323	0.000378	0.000442	0.000511

O + NCC(=O)O + CCCCCCCCCCCCCCCC[n+]1ccccc1.[Cl-]
Conditions	electrical conductivity [S/m]
308.15 K, 101 kPa, x2 = 0, x3 = 0	6.7e-05

CCC[N+]1(C)CCCC1.O=S(=O)([N-]S(=O)(=O)C(F)(F)F)C(F)(F)F + CC[n+]1ccn(C)c1.O=S(=O)([N-]S(=O)(=O)C(F)(F)F)C(F)(F)F
101 kPa
Conditions	electrical conductivity, 293.15 K [S/m]	electrical conductivity, 333.15 K [S/m]	electrical conductivity, 353.15 K [S/m]	viscosity, 293.15 K [mPa·s]	viscosity, 333.15 K [mPa·s]	viscosity, 353.15 K [mPa·s]
x2 = 0	–	1.18	1.76	–	18.8	11.6
x2 = 0.5	0.528	–	–	53.4	–	–

CCCC[n+]1ccn(C)c1.F[B-](F)(F)F + CC(C)O
viscosity [mPa·s], 101 kPa
Conditions	293.15 K	298.15 K	303.15 K	308.15 K	313.15 K	318.15 K	323.15 K
x1 = 0.0804	4.9	4.2	3.89	3.46	2.84	2.16	1.48
x1 = 0.1585	7.6	7	6.52	5.78	4.67	3.41	2.15
x1 = 0.2402	11.4	10.3	9.5	8.4	6.8	4.9	3.01
x1 = 0.3505	16	15	14	12.4	9.9	7.1	4.34
x1 = 0.4422	20.7	19.7	18.2	16	12.9	9.3	5.78
x1 = 0.5619	28.4	26.7	24.9	21.9	17.6	12.9	8.3
x1 = 0.6491	36.8	34.3	31.3	27.6	22.2	16.5	10.8
x1 = 0.7409	48.5	44.8	40	34.6	27.9	20.9	14.1
x1 = 0.8458	69	61.6	53.7	45.8	36.8	27.8	19.3
x1 = 0.9327	95	82	70	58.8	47.1	35.9	25.4
x1 = 1	125	105	88	72	57.7	44	31.6

CCC[N+]1(C)CCCC1.O=S(=O)([N-]S(=O)(=O)C(F)(F)F)C(F)(F)F + O=C1CCCO1
101 kPa, frequency 0.0005 MHz
Conditions	electrical conductivity [S/m]
278.15 K, x1 = 0.3874	0.573
308.15 K, x1 = 0.1741	1.63
328.15 K, x1 = 0.06566	1.63
348.15 K, x1 = 0.1741	2.59
348.15 K, x1 = 0.3874	2.27
358.15 K, x1 = 0.06566	2.1

101 kPa
Conditions	viscosity [mPa·s]
278.15 K, x1 = 1	163.6
288.15 K, x1 = 0.1741	5.49
328.15 K, x1 = 0.1741	2.63
338.15 K, x1 = 0.06566	1.491
338.15 K, x1 = 0.1741	2.274
348.15 K, x1 = 0.1741	1.993
358.15 K, x1 = 0.1741	1.768
358.15 K, x1 = 1	10.34

CCC1COC(=O)O1 (stereo not given) + O=S(=O)([N-]S(=O)(=O)C(F)(F)F)C(F)(F)F.[Li+]
298.1 K, 100 kPa, x2 = 0.333
Conditions	electrical conductivity [S/m]	viscosity [mPa·s]
–	0.02	323

O + CCCC[n+]1ccc(C)cc1.[Br-]
100 kPa, frequency 0.003 MHz, x2 = 0
Conditions	electrical conductivity [S/m]
288.15 K	0.0001
308.15 K	0.00022

O + CCCCCCCCCCCCCC[n+]1ccccc1.O=C([O-])C(O)c1ccccc1 + CC(C)[C@H](N)C(=O)O
101 kPa, x2 = 0, x3 = 0
Conditions	electrical conductivity [S/m]
293.15 K	0.00012
298.15 K	0.00015
303.15 K	0.00016
308.15 K	0.00017
313.15 K	0.00019

CC[n+]1ccn(C)c1.N#C[N-]C#N + CCC(C)O
viscosity [mPa·s], 100 kPa
Conditions	x1 = 0.1023	x1 = 0.2005	x1 = 0.3015	x1 = 0.4018	x1 = 0.5032	x1 = 0.6026	x1 = 0.7026	x1 = 0.8032	x1 = 0.9029	x1 = 1
298.15 K	3.05	3.17	3.48	3.86	4.53	5.4	6.7	8.3	10.3	13.1
303.15 K	2.59	2.71	3.02	3.41	4.07	4.95	6.1	7.5	9.6	11.8
308.15 K	2.25	2.37	2.68	3.06	3.72	4.63	5.6	7	8.9	10.9
313.15 K	2.01	2.13	2.41	2.69	3.36	4.19	5.1	6.4	7.8	9
318.15 K	1.83	1.95	2.26	2.54	3.06	3.79	4.59	5.8	6.9	8.1
323.15 K	1.67	1.79	2.05	2.26	2.83	3.51	4.18	5	6.2	7.3

CC[P+](CC)(CC)COCCOC.c1c[n-]nn1 + CCCCCC[n+]1ccn(C)c1.O=S(=O)([N-]S(=O)(=O)C(F)(F)F)C(F)(F)F
100 kPa
Conditions	viscosity [mPa·s]
278.15 K, x2 = 0.75	235
288.15 K, x2 = 0.25	136
293.15 K, x2 = 0.25	103
298.15 K, x2 = 0.75	76
303.15 K, x2 = 0.5	60

C1COCCO1 + CCCC[n+]1ccn(C)c1.F[B-](F)(F)F
Conditions	viscosity [mPa·s]
298.15 K, 100 kPa, x2 = 0	1.18

CCCCCCCCO + CCCCCCCC(=O)[O-].c1c[nH+]c[nH]1
Conditions	viscosity [mPa·s]
293.15 K, 101.3 kPa, x1 = 1	9.18
